This series in a line: Release rate of a volatile compound from a model manually replenished system (mass loss of vials through a mass-regulating barrier). The class given is physicochemical. Conditions: low-density polyethylene barrier, 0.004 inch-thick; air about 1.4 m/s; substantially constant over 133 days in the laboratory (FIG. 5). The protocol:
Experimental release rates of a volatile compound from a model manually replenished system were measured as a function of time. Glass screw-thread sample vials with PTFE/silicone septa and open-top polypropylene caps contained the volatile liquid compound. Two different sizes of vials were employed: small 8 mL capacity (17 mm O.D. and 63 mm height) and large 40 mL capacity (28 mm O.D. and 98 mm height). The test volatile compound selected for study was dimethyldisulfide (DMDS). Duplicate samples of 5.5 mL and 30 mL of DMDS were added to the small and large vials, respectively. Then a mass-regulating barrier was placed on the top of each vial, and the open-top cap was tightly screwed to seal the vial contents. The diameters of the mass-regulating barriers for the small and large vials were 13.4 and 22.0 mm, respectively. In addition, the diameters of the openings in the caps for the small and large vials were 8.78 mm and 14.62 mm, respectively. Each vial with barrier, cap and liquid contents was then immediately weighed on an analytical balance. Next, the vials were placed in a dedicated laboratory fume hood. Ambient air with a bulk velocity of about 1.4 m/s (or 3 mph) passed over the vials. […] From these primary measurements the release rate for each […] was determined as a function of time. […]

The structures appear in SMILES notation.

The compound `CSSC` [DMDS, dimethyldisulfide] came in with a release rate of 26 mg/day.

Source of the values: patent US9185897B2, “Methods to deliver and maintain volatile compounds” (AUBURN UNIVERSITY, priority 2010, dated 2015).
